Reference: patent US12692269B2, “Therapeutic compounds” (Genentech, Inc., priority 2019, dated 2026)

Experiments:
Format in all cases: binding
[1] = molecular target: TEAD1 TAZ (amino acids 13-57) (Homo sapiens, UniProt P28347); test: TEAD1-TAZ HTRF (TR-FRET) protein-protein interaction assay; conditions: for TEAD1 TAZ HTRF combined: Max % Inhibition: TEAD1, TAZ peptide; for EC50: TEAD1-TAZ HTRF, TR-FRET 665 nm/615 nm, read-out: TEAD1 TAZ HTRF combined: EC50
Summary of the method: (§1)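 His-tagged TEAD YAP-binding domain (aa 217-447) pre-bound to Eu anti-His tracer, incubated with compound 30 min, then biotinylated YAP (aa 50-100) or TAZ (aa 13-57) peptide with streptavidin-XL665 added for 60 min at room temperature. TR-FRET read at 665/615 nm; IC50 or EC50 from four-parameter fit.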

[2] = molecular target: TEAD2 TAZ (amino acids 13-57) (Homo sapiens, UniProt Q15562); test: TEAD2-TAZ HTRF (TR-FRET) protein-protein interaction assay; conditions: for TEAD2 TAZ HTRF combined: Max % Inhibition: TEAD2, TAZ peptide; for EC50: TEAD2-TAZ HTRF, TR-FRET 665 nm/615 nm, read-out: TEAD2 TAZ HTRF combined: EC50
TEAD2 TAZ (amino acids 13-57), sequence (Q15562 217-447): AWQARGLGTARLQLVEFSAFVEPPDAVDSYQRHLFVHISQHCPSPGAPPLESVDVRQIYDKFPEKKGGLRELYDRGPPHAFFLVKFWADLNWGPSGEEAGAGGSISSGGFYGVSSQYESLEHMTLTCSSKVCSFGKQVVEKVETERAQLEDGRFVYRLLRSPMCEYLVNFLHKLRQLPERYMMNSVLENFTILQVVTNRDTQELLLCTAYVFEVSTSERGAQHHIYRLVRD
Summary of the method: as §1

TEAD3 YAP50-100 = TEAD3 YAP50-100 (Homo sapiens, UniProt Q99594); test: TEAD3-YAP HTRF (TR-FRET) protein-protein interaction assay; conditions: TEAD3, YAP peptide 50-100, HTRF; for EC50: read-out: TEAD3 YAP50-100 HTRF combined: EC50
TEAD3 YAP50-100, sequence (Q99594 173-435 limits assumed): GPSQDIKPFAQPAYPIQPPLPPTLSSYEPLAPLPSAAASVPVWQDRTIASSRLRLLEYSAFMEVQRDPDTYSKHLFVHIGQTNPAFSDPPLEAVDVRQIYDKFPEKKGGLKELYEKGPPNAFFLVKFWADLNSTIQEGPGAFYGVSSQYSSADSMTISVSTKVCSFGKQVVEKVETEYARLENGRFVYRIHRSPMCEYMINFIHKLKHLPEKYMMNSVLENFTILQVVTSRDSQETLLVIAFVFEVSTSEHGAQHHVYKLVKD
Summary of the method: as §1

[3] = molecular target: TEAD4 TAZ (amino acids 13-57) (Homo sapiens, UniProt Q15561); test: TEAD4-TAZ HTRF (TR-FRET) protein-protein interaction assay; conditions: for TEAD4 TAZ HTRF combined: Max % Inhibition: TEAD4, TAZ peptide; for EC50: TEAD4-TAZ HTRF, TR-FRET 665 nm/615 nm, read-out: TEAD4 TAZ HTRF combined: EC50
TEAD4 TAZ (amino acids 13-57), sequence (Q15561 217-434 limits assumed): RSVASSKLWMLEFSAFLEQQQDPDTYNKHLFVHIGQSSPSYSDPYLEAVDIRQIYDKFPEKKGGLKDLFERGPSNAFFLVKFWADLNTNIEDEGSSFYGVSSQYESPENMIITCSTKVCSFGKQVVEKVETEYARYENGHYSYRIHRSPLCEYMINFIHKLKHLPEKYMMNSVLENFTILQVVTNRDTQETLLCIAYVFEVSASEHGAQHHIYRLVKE
Summary of the method: as §1

TEAD2 YAP50-100 = TEAD2 YAP50-100 (Homo sapiens, UniProt Q15562); test: TEAD2-YAP HTRF (TR-FRET) protein-protein interaction assay; conditions: TEAD2, YAP peptide 50-100, HTRF; for EC50: read-out: TEAD2 YAP50-100 HTRF combined: EC50
TEAD2 YAP50-100, sequence (Q15562 217-447): as the sequence (Q15562 217-447) above
Summary of the method: as §1

TEAD1 YAP50-100 = TEAD1 YAP50-100 (Homo sapiens, UniProt P28347); test: TEAD1-YAP HTRF (TR-FRET) protein-protein interaction assay; conditions: TEAD1, YAP peptide 50-100, HTRF; for EC50: read-out: TEAD1 YAP50-100 HTRF combined: EC50
TEAD1 YAP50-100, sequence (P28347 167-426 limits assumed): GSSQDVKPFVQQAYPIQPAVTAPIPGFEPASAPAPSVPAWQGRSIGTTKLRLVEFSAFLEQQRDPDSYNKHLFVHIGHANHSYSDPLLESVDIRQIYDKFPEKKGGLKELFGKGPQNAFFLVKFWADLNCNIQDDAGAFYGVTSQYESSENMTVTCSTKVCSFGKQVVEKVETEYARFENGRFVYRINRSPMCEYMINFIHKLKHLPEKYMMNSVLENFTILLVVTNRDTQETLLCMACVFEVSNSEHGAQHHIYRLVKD
Summary of the method: as §1

TEAD4 YAP50-100 = TEAD4 YAP50-100 (Homo sapiens, UniProt Q15561); test: TEAD4-YAP HTRF (TR-FRET) protein-protein interaction assay; conditions: TEAD4, YAP peptide 50-100, HTRF; for EC50: read-out: TEAD4 YAP50-100 HTRF combined: EC50
TEAD4 YAP50-100, sequence (Q15561 217-434 limits assumed): as the sequence (Q15561 217-434 limits assumed) above
Summary of the method: as §1

[4] = molecular target: TEAD3 TAZ (amino acids 13-57) (Homo sapiens, UniProt Q99594); test: TEAD3-TAZ HTRF (TR-FRET) protein-protein interaction assay; conditions: for TEAD3 TAZ HTRF combined: Max % Inhibition: TEAD3, TAZ peptide; for EC50: TEAD3-TAZ HTRF, TR-FRET 665 nm/615 nm, read-out: TEAD3 TAZ HTRF combined: EC50
TEAD3 TAZ (amino acids 13-57), sequence (Q99594 173-435 limits assumed): as the sequence (Q99594 173-435 limits assumed) above
Summary of the method: as §1

TEAD1 TAZ (amino acids 13-57), sequence (P28347 167-426 limits assumed): as the sequence (P28347 167-426 limits assumed) above

TEAD1 TAZ HTRF combined: Max % Inhibition [1] [%] | EC50 [1] [nM] | TEAD2 TAZ HTRF combined: Max % Inhibition [2] [%] | EC50 [2] [nM] | TEAD3 YAP50-100 HTRF combined: Max % Inhibition (TEAD3 YAP50-100) [%] | EC50 (TEAD3 YAP50-100) [nM] | TEAD4 TAZ HTRF combined: Max % Inhibition [3] [%] | EC50 [3] [nM] | TEAD2 YAP50-100 HTRF combined: Max % Inhibition (TEAD2 YAP50-100) [%] | EC50 (TEAD2 YAP50-100) [nM] | TEAD1 YAP50-100 HTRF combined: Max % Inhibition (TEAD1 YAP50-100) [%] | EC50 (TEAD1 YAP50-100) [nM] | TEAD4 YAP50-100 HTRF combined: Max % Inhibition (TEAD4 YAP50-100) [%] | EC50 (TEAD4 YAP50-100) [nM] | TEAD3 TAZ HTRF combined: Max % Inhibition [4] [%] | EC50 [4] [nM] | SMILES
71.5 | 90 | 70.0 | 20 | 72.5 | 180 | 50.5 | 20 | 70.0 | 20 | 78.0 | 60 | 54.0 | 30 | 57.5 | 170 | Cc1ccnc(-c2nn3c(=O)cc(-c4ccc(C5CCCCC5)cc4)[nH]c3c2C(=O)N2CC(CF)C2)c1C [Compound 29, 5-(4-Cyclohexylphenyl)-2-(3,4-dimethylpyridin-2-yl)-3-(3-(fluoromethyl)azetidine-1-carbonyl)pyrazolo[1,5-a]pyrimidin-7(4H)-one]
64.5 | 80 | 70.5 | 10 | 68.5 | 140 | 53.0 | 30 | 76.0 | 10 | 75.0 | 60 | 53.5 | 30 | 63.0 | 160 | C[C@@H]1[C@H](CF)CN1C(=O)c1c(-c2ncccn2)nn2c(=O)cc(-c3ccc(C4CCCCC4)cc3)[nH]c12 (single isomer, unassigned) [Isomer A, Example 40]

Second part, the compound before the results:

SMILES | TEAD1 TAZ HTRF combined: Max % Inhibition [1] [%] | EC50 [1] [nM] | TEAD2 TAZ HTRF combined: Max % Inhibition [2] [%] | EC50 [2] [nM] | TEAD3 YAP50-100 HTRF combined: Max % Inhibition (TEAD3 YAP50-100) [%] | EC50 (TEAD3 YAP50-100) [nM] | TEAD4 TAZ HTRF combined: Max % Inhibition [3] [%] | EC50 [3] [nM] | TEAD2 YAP50-100 HTRF combined: Max % Inhibition (TEAD2 YAP50-100) [%] | EC50 (TEAD2 YAP50-100) [nM] | TEAD1 YAP50-100 HTRF combined: Max % Inhibition (TEAD1 YAP50-100) [%] | EC50 (TEAD1 YAP50-100) [nM] | TEAD4 YAP50-100 HTRF combined: Max % Inhibition (TEAD4 YAP50-100) [%] | EC50 (TEAD4 YAP50-100) [nM] | TEAD3 TAZ HTRF combined: Max % Inhibition [4] [%] | EC50 [4] [nM]
CC(C)(C)c1ccc(COc2cc(=O)n3nc(-c4ncccn4)c(C(=O)N4CC(CF)C4)c3[nH]2)cc1 [Compound 54, 5-((4-(Tert-butyl)benzyl)oxy)-3-(3-(fluoromethyl)azetidine-1-carbonyl)-2-(pyrimidin-2-yl)pyrazolo[1,5-a]pyrimidin-7(4H)-one] | 63.0 | 70 | 59.5 | 20 | 56.5 | 80 | 56.0 | 40 | 59.0 | 20 | 71.0 | 50 | 60.5 | 40 | 45.0 | 90
Cc1nccnc1-c1nn2c(=O)cc(-c3ccc(CC(C)(C)C)cc3)[nH]c2c1C(=O)N1C[C@H](CF)[C@@H]1C (racemic) [Compound 73, 5-[4-(2,2-dimethylpropyl)phenyl]-2-(3-methylpyrazin-2-yl)-3-[rac-(2S,3S)-3-(fluoromethyl)-2-methyl-azetidine-1-carbonyl]-4H-pyrazolo[1,5-a]pyrimidin-7-one] | 65.5 | 110 | 68.5 | 20 | 69.5 | 150 | 56.0 | 80 | 67.0 | 20 | 74.0 | 120 | 58.5 | 100 | 59.5 | 160
Cc1nccnc1-c1nn2c(=O)cc(-c3ccc(OC(c4ccccc4)C(F)(F)F)cc3)[nH]c2c1C(=O)N1C[C@H](CF)[C@@H]1C (single isomer, unassigned) [Final product obtained using Enantiomer A from Step 1, Example 56] | 63.0 | 320 | 89.0 | 60 | 81.5 | 370 | 67.0 | 2250 | 92.0 | 60 | 74.0 | 370 | 69.5 | 2700 | 74.5 | 430
Cc1nccnc1-c1nn2c(=O)cc(-c3ccc(-c4ccccc4)cc3)[nH]c2c1C(=O)N1CC(CF)C1 [Compound 60, 5-([1,1′-Biphenyl]-4-yl)-3-(3-(fluoromethyl)azetidine-1-carbonyl)-2-(3-methylpyrazin-2-yl)pyrazolo[1,5-a]pyrimidin-7(4H)-one] | 78.5 | 40 | 66.5 | 10 | 78.0 | 200 | 64.0 | 510 | 66.5 | 10 | 80.0 | 30 | 60.0 | 610 | 74.0 | 220
